Measurements from publication PMC3871636 (PLoS ONE, 2013).

How the values were obtained:
[1] = target: T1, double-labeled CYP3A4 (C64/C468)-ER/DY (Homo sapiens, UniProt P08684, S18F, form not given); test: Steady-state LRET titration (delayed emission); type: binding
Procedure: (§1) All absorbance and fluorescence assays (including the time-resolved fluorescence measurements) were performed at a protein concentration ≤1 µM at 25°C with continuous stirring. Absorbance spectra were recorded with an S2000 rapid scanning CCD spectrometer (Ocean Optics). Ligand binding assays were done in 100 mM Na-Hepes buffer, pH 7.4, containing 0.5 mM EDTA.
(§2) Fluorescence-based ligand binding assays were done under anaerobic conditions. Anaerobiosis was achieved using an oxygen-scavenging system consisting of protecatechuate-3,4-dioxygenase (0.5 units/ml) and 5 mM protocatechuic acid. The steady state and time-resolved phosphorescence measurements were performed with the use of a Cary Eclipse fluorescence spectrophotometer (Varian/Agilent Technologies). The excitation wavelength was set to 540 nm. Spectra were taken from 650 to 860 nm with 100 µs delay.
(§3) Quantitative interpretation of LRET results was also based on the use of PCA applied to a series of emission spectra normalized on integral intensity. […] Intensity of the donor and acceptor fluorescence obtained in this way were used in determination of the efficiency of steady-state LRET using the equation [drawing 1] (Eq.1) where I ad is emission intensity of the acceptor, I da is the residual donor emission in the presence of acceptor (I da), Φ a and Φ d are the quantum yield of the fluorescence of acceptor and the quantum yield of the phosphorescence of donor, respectively.
(§4) Distances were calculated using the equation: [drawing 3] (Eq.3) where R 0 is the Förster distance, and R is the distance between the donor and acceptor. R 0 was calculated with the use of PhotoChemCad software. In these calculations, we used the values of the orientation factor (κ^2) and the refractive index (n) of 0.667 and 1.4, respectively.
(§5) When fitting the results of titration experiments, where the changes in the monitored signal A S (fraction of the enzyme in the high-spin state, intensity or the lifetime of the donor phosphorescence at a given substrate concentration) were assumed to be proportional to [ES], this equation was complemented with the offset A 0 and the scaling factor A max to yield the following relationship: [drawing 5] (Eq.5)

[2] = target: CYP3A4 (double-labeled (C64/C468)-DY/ER) (Homo sapiens, UniProt P08684, form not given/S18F); test: Steady-state LRET titration (delayed emission); type: binding; details: human, purified double-labeled CYP3A4 (C64/C468)-DY/ER protein, pH 7.4; (C64/C468)-DY/ER; LRET titration; read-out: K d, steady-state fluorescence
Chain of CYP3A4 (double-labeled (C64/C468)-DY/ER) (P08684 13-503 S18F, form open): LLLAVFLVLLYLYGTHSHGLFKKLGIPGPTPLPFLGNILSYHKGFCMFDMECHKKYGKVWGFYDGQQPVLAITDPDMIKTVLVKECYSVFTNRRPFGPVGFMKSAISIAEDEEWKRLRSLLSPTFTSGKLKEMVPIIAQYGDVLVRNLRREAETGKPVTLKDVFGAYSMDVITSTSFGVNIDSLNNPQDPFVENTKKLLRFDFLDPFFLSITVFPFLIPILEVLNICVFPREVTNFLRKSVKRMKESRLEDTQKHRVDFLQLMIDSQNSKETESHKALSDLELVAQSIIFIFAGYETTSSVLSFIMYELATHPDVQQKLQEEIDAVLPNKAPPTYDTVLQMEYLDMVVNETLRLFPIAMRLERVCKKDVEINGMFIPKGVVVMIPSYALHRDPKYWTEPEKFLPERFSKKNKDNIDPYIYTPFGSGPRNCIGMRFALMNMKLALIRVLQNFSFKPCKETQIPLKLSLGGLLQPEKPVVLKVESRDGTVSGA
Procedure: as §1, §2, §3, §4, §5

[3] = target: T2, double-labeled CYP3A4 C377/C468-DY/ER (Homo sapiens, UniProt P08684, S18F, form not given); test: Steady-state LRET titration (delayed emission); type: binding; details: Table S2, protein C377/C468-ER/DY
T2 sequence (P08684 13-503 S18F, form open): as above
Procedure: as §1, §2, §3, §4, §5

[4] = target: T3, double-labeled CYP3A4 (C64/C468)-DY/ER (Homo sapiens, UniProt P08684, S18F, form not given); test: Steady-state LRET titration (delayed emission); type: binding
T3 sequence (P08684 13-503 S18F, form open): as above
Procedure: as §1, §2, §3, §4, §5

[5] = target: T1, double-labeled CYP3A4 (C64/C468)-ER/DY; test: Time-resolved LRET (phosphorescence lifetime measurements)
From the text: (§6) The excitation wavelength was set to 540 nm.

[6] = target: T2, double-labeled CYP3A4 C377/C468-DY/ER; test: as above
From the text: as §6

[7] = target: T3, double-labeled CYP3A4 (C64/C468)-DY/ER; test: as above
From the text: as §6

[8] = target: double-labeled CYP3A4 C64/C121-DY/ER (Homo sapiens, UniProt P08684, A121C/C239S/C377S/C468A/C98S/S18F); test: as above
Chain of double-labeled CYP3A4 C64/C121-DY/ER (P08684 with tags, fused parts or gaps S18F/C98S/A121C/C239S/C377S/C468A limits assumed): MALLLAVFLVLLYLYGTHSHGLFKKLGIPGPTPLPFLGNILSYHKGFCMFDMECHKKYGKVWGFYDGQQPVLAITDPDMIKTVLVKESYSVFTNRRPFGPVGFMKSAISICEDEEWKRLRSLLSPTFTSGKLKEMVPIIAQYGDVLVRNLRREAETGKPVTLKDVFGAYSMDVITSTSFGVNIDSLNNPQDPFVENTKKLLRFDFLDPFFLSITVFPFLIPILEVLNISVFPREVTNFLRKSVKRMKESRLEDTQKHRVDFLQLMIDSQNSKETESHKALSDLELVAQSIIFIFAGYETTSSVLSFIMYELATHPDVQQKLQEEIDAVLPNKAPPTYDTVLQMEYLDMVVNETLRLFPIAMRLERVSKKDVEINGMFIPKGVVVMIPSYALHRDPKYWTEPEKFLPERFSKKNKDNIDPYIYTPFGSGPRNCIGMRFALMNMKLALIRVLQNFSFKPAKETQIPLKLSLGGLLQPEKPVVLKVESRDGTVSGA
Procedure: as §1, §2
The treatment of the time-resolved decay traces was performed using a bi-exponential approximation. The efficiency of time-resolved LRET was calculated using the equation [drawing 2] (Eq.2)
In this equation τda and τd designate the average lifetime of the excited state of the donor in the presence and absence of the acceptor, respectively. These average lifetimes are determined as τ = α1τ1+α2τ2, where τ1,2 and α1,2 stay for the lifetime and the relative amplitude of each of the two exponential terms. In our calculations of the lifetime in double-labeled C64/C468, C377/C468 and C64/C121 proteins we used the lifetimes of phosphorescence measured with the respective proteins labeled with ERIA at a label:protein ratio 2∶1 as the estimates of τd.
as §4

[9] = Table S2, C64/C468-ER/DY, 1-PB 40 µM, ANF 100 µM, BCT 2.5 µM, cholesterol 100 µM, testosterone 100 µM
[10] = Table S2, C64/C468-ER/DY, same ligand concentrations
[11] = Table S2, C64/C468-DY/ER, 1-PB 40 µM, ANF 100 µM, BCT 2.5 µM, cholesterol 100 µM, testosterone 100 µM
[12] = Table S2, C64/C468-DY/ER, same ligand concentrations
[13] = (C64/C468)-ER/DY, nearly-saturating ligand: ANF 100 µM, bromocriptine 2.5 µM, cholesterol 50 µM, testosterone 100 µM
[14] = Table S1, (C64/C468)-ER/DY, same ligand concentrations
[15] = Table S1, protein (C377/C468)-ER/DY, same ligand concentrations
[16] = Table S2, protein C377/C468-ER/DY, same ligand concentrations
[17] = (C64/C468)-DY/ER, nearly-saturating ligand: ANF 100 µM, bromocriptine 2.5 µM, cholesterol 50 µM, testosterone 100 µM
[18] = Table S1, (C64/C468)-DY/ER, same ligand concentrations
[19] = Table S1, protein (C64/C121)-ER/DY, same ligand concentrations
[20] = Table S2, protein C64/C121-ER/DY, same ligand concentrations

T1 sequence (P08684 13-503 S18F, form open): as the sequence (P08684 13-503 S18F, form open) above

OCCCCc1ccc2ccc3cccc4ccc1c2c34 [1-PB, 1-pyrenebutanol] was tested, and the “ΔR (change in interprobe distance), steady-state fluorescence” value ([1]; (C64/C468)-ER/DY) was −0.3±0.8 Å, the “ΔE (change in LRET efficiency), steady-state fluorescence” value ([1]; (C64/C468)-ER/DY, from maximal relative change in donor intensity) was 1±1% and the “E (LRET efficiency with ligand), steady-state measurements” value [1, 9] was 30 ± 1%. For the same compound, the “R (interprobe distance with ligand), steady-state measurements” value [1, 10] was 38.8 ± 0.8 Å, the “ΔR, steady-state measurements” value [1, 10] was −0.3 ± 0.8 Å and the Kd [2] was 22.2 ± 4 µM. For the same compound, the “E (LRET efficiency with ligand), steady-state measurements” value ([3]; 1-PB 40 µM, ANF 100 µM, BCT 2.5 µM, cholesterol 100 µM, testosterone 100 µM) was 16± 1%, the “R (interprobe distance with ligand), steady-state measurements” value ([3]; same ligand concentrations) was 44.5 ± 0.7 Å and the “ΔR, steady-state measurements” value ([3]; same ligand concentrations) was −0.2 ± 0.7 Å. The “ΔR (change in interprobe distance), steady-state fluorescence” value ([4]; (C64/C468)-DY/ER) was 0.9±1.8 Å, the “ΔE (change in LRET efficiency), steady-state fluorescence” value ([4]; (C64/C468)-DY/ER, from maximal relative change in donor intensity) was −4±1% and the “E (LRET efficiency with ligand), steady-state measurements” value [4, 11] was 41 ± 1%. For the same compound, the “R (interprobe distance with ligand), steady-state measurements” value [4, 12] was 35.8 ± 1.8 Å, the “ΔR, steady-state measurements” value [4, 12] was 0.9 ± 1.8 Å and the “ΔELT (change in LRET efficiency), lifetime measurements” value [5, 13] was −1.5±1%. For the same compound, the “ΔR (change in interprobe distance), lifetime measurements” value [5, 13] was 0.4±0.1 Å, the “τ1 (phosphorescence decay time with ligand)” value ([5]; Table S1, (C64/C468)-ER/DY, 1-PB 40 µM, ANF 100 µM, BCT 2.5 µM, cholesterol 100 µM, testosterone 100 µM, bi-exponential fit) was 63 ± 2 µs and the “F1 (fraction of first exponential)” value [5, 14] was 60 ± 8%. The “τ2 (phosphorescence decay time with ligand)” value [5, 14] was 241 ± 5 µs, the “τav (average phosphorescence lifetime with ligand)” value (“τav” below) [5, 14] was 138 ± 4 µs and the “E (LRET efficiency with ligand), lifetime measurements” value [5, 9] was 41 ± 1%. For the same compound, the “R (interprobe distance with ligand), lifetime measurements” value [5, 10] was 36.7 ± 0.1 Å, the “ΔR, lifetime measurements” value [5, 10] was 0.4 ± 0.1 Å and the “τ1 (phosphorescence decay time with ligand)” value ([6]; Table S1, protein (C377/C468)-ER/DY, 1-PB 40 µM, ANF 100 µM, BCT 2.5 µM, cholesterol 100 µM, testosterone 100 µM, bi-exponential fit) was 45 ± 5 µs. The “F1 (fraction of first exponential)” value [6, 15] was 30 ± 3%, the “τ2 (phosphorescence decay time with ligand)” value [6, 15] was 149 ± 5 µs and the “τav” value [6, 15] was 118 ± 2 µs. For the same compound, the “E (LRET efficiency with ligand), lifetime measurements” value ([6]; Table S2, protein C377/C468-ER/DY, 1-PB 40 µM, ANF 100 µM, BCT 2.5 µM, cholesterol 100 µM, testosterone 100 µM) was 35 ± 1%, the “R (interprobe distance with ligand), lifetime measurements” value [6, 16] was 38.3 ± 0.3 Å and the “ΔR, lifetime measurements” value [6, 16] was 1.6 ± 0.3 Å. For the same compound, the “ΔELT (change in LRET efficiency), lifetime measurements” value [7, 17] was “+3.8±1%”, the “ΔR (change in interprobe distance), lifetime measurements” value [7, 17] was −0.9±0.1 Å and the “τ1 (phosphorescence decay time with ligand)” value ([7]; Table S1, (C64/C468)-DY/ER, 1-PB 40 µM, ANF 100 µM, BCT 2.5 µM, cholesterol 100 µM, testosterone 100 µM, bi-exponential fit) was 53 ± 1 µs. For the same compound, the “F1 (fraction of first exponential)” value [7, 18] was 46 ± 3%, the “τ2 (phosphorescence decay time with ligand)” value [7, 18] was 195 ± 7 µs and the “τav” value [7, 18] was 129 ± 1 µs. The “E (LRET efficiency with ligand), lifetime measurements” value [7, 11] was 45 ± 1%, the “R (interprobe distance with ligand), lifetime measurements” value [7, 12] was 35.8 ± 0.1 Å and the “ΔR, lifetime measurements” value [7, 12] was -0.9 ± 0.1 Å. The “τ1 (phosphorescence decay time with ligand)” value ([8]; Table S1, protein (C64/C121)-ER/DY, 1-PB 40 µM, ANF 100 µM, BCT 2.5 µM, cholesterol 100 µM, testosterone 100 µM, bi-exponential fit) was 57 ± 1 µs, the “F1 (fraction of first exponential)” value [8, 19] was 35 ± 1% and the “τ2 (phosphorescence decay time with ligand)” value [8, 19] was 199 ± 12 µs. For the same compound, the “τav” value [8, 19] was 149 ± 9 µs, the “E (LRET efficiency with ligand), lifetime measurements” value ([8]; Table S2, protein C64/C121-ER/DY, 1-PB 40 µM, ANF 100 µM, BCT 2.5 µM, cholesterol 100 µM, testosterone 100 µM) was 46 ± 5% and the “R (interprobe distance with ligand), lifetime measurements” value [8, 20] was 35.4 ± 0.8 Å. For the same compound, the “ΔR, lifetime measurements” value [8, 20] was 0.4 ± 0.8 Å.
